From patent US20210395313A1, “PEPTIDE PAC1 ANTAGONISTS” (AMGEN INC., priority 2017, published 2021) come the findings set out here.

Where a SMILES comes first, the peptide text is derived from it. Bridges are numbered along the chain shown (N, C = ends). Where no end group is shown, it is not given here.

The experiment deals with T1, rat PAC1 receptor (Rattus norvegicus, UniProt P32215).
T1 construct: SHSY-5Y (human neuroblastoma cell line) and RG-2 (rat glioma cell line) cells endogenously express human and rat PAC1 receptors, respectively; endogenous in cells; host or cells: RG-2 rat glioma cells
T1 sequence (P32215 20-523): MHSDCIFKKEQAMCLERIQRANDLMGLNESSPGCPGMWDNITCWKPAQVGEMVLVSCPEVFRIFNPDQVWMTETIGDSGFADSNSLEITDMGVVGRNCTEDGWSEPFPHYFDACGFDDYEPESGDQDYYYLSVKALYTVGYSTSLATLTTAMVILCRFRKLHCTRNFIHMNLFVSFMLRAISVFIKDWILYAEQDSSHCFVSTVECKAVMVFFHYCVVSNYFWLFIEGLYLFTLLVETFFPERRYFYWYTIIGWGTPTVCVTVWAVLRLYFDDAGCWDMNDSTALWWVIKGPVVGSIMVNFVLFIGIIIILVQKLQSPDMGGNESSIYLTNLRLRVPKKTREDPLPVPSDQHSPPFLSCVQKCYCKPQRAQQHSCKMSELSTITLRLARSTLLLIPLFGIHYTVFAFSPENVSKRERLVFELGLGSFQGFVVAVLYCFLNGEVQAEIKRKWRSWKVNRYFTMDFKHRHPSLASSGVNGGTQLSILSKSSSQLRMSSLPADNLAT
Description: LANCE Ultra cAMP accumulation antagonist assay in RG-2 cells.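 Note: RG-2 rat glioma cells endogenously expressing PAC1, test peptide preincubated 30 min, then PAC1 agonist added at its EC80 for 15 min, cAMP accumulation read by LANCE Ultra.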 Type of experiment: cell-based.
In turn, `CC[C@H](C)[C@H](NC(=O)[C@H](C)NC(=O)[C@H](CCCCN)NC(=O)[C@H](CCCNC(=N)N)NC(=O)[C@H](Cc1ccccc1)NC(=O)[C@H](CCC(N)=O)NC(=O)[C@@H]1CSSC[C@H](N)C(=O)N[C@@H](CC(=O)O)C(=O)N[C@@H](C)C(=O)N[C@@H]([C@@H](C)O)C(=O)N1)C(=O)N[C@@H](CC(=O)O)C(=O)N[C@@H](CC(=O)O)C(=O)N[C@H]1CSSC[C@@H](C(=O)N[C@@H](CCSC)C(=O)N[C@@H](CCCCN)C(=O)N[C@@H](CCC(N)=O)C(=O)N[C@@H](CCCCN)C(=O)N[C@@H](CCCCN)C(=O)N[C@@H](CCCCN)C(=O)N[C@@H](CCC(=O)O)C(=O)N[C@@H](Cc2c[nH]c3ccccc23)C(=O)N[C@@H](CCCCN)C(=O)N[C@@H](C)C(=O)NCC(N)=O)NC(=O)[C@H](CO)NC(=O)[C@H](CCCCN)NC(=O)[C@H](Cc2ccccc2)NC(=O)[C@H](C(C)C)NC(=O)[C@H](CO)NC(=O)[C@H](CO)NC(=O)[C@H](Cc2c[nH]cn2)NC(=O)[C@H](Cc2ccc(O)cc2)NC(=O)[C@H](C)NC(=O)[C@H](CCC(N)=O)NC(=O)[C@H](CCCNC(=N)N)NC(=O)[C@H](C)NC1=O` [compound 430] (H-CDATCQFRKAIDDCARQAYHSSVFKSCMKQKKKEWKAG-NH2; disulfide 1-5, 14-27) came in with a concentration for half-maximal inhibition (IC50) below 0.01 nM.

Compound `CC[C@H](C)[C@H](NC(=O)[C@H](C)NC(=O)[C@H](CCCCN)NC(=O)[C@H](CCCNC(=N)N)NC(=O)[C@H](Cc1ccccc1)NC(=O)[C@H](CCC(N)=O)NC(=O)[C@@H]1CSSC[C@H](N)C(=O)N[C@@H](CC(=O)O)C(=O)N[C@@H](C)C(=O)N[C@@H]([C@@H](C)O)C(=O)N1)C(=O)N[C@@H](CC(=O)O)C(=O)N[C@@H](CC(=O)O)C(=O)N[C@H]1CSSC[C@@H](C(=O)N[C@@H](CC(C)C)C(=O)N[C@@H](CCCCN)C(=O)N[C@@H](CCC(N)=O)C(=O)N[C@@H](CCCCN)C(=O)N[C@@H](CCCCN)C(=O)N[C@@H](CCCCN)C(=O)N[C@@H](CCC(=O)O)C(=O)N[C@@H](Cc2c[nH]c3ccccc23)C(=O)N[C@@H](CCCCN)C(=O)N[C@@H](C)C(=O)NCC(N)=O)NC(=O)[C@H](CO)NC(=O)[C@H](CCCCN)NC(=O)[C@H](Cc2ccccc2)NC(=O)[C@H](C(C)C)NC(=O)[C@H](CO)NC(=O)[C@H](CO)NC(=O)[C@H](Cc2c[nH]cn2)NC(=O)[C@H](Cc2ccc(O)cc2)NC(=O)[C@H](C)NC(=O)[C@H](CCC(N)=O)NC(=O)[C@H](CCCNC(=N)N)NC(=O)[C@H](C)NC1=O` [compound 436] (H-CDATCQFRKAIDDCARQAYHSSVFKSCLKQKKKEWKAG-NH2; disulfide 1-5, 14-27) had an IC50 of 0.01 to 1 nM.

As for `CC[C@H](C)[C@H](NC(=O)[C@H](C)NC(=O)[C@H](CCCCN)NC(=O)[C@H](CCCNC(=N)N)NC(=O)[C@H](Cc1ccccc1)NC(=O)[C@H](CCC(N)=O)NC(=O)[C@@H]1CSSC[C@H](N)C(=O)N[C@@H](CC(=O)O)C(=O)N[C@@H](C)C(=O)N[C@@H]([C@@H](C)O)C(=O)N1)C(=O)N[C@@H](CC(=O)O)C(=O)N[C@@H](CC(=O)O)C(=O)N[C@H]1CSSC[C@@H](C(=O)N[C@@H](CCSC)C(=O)N[C@@H](CCCCN)C(=O)N[C@@H](CCC(N)=O)C(=O)N[C@@H](CCCCN)C(=O)N[C@@H](CCCCN)C(=O)N[C@@H](CCCCN)C(=O)N[C@@H](CCC(=O)O)C(=O)N[C@@H](Cc2c[nH]c3ccccc23)C(=O)N[C@@H](CCCCN)C(=O)N[C@@H](C)C(=O)NCC(N)=O)NC(=O)[C@H](C)NC(=O)[C@H](CCCCN)NC(=O)[C@H](Cc2ccccc2)NC(=O)[C@H](C(C)C)NC(=O)[C@H](CO)NC(=O)[C@H](CC(N)=O)NC(=O)[C@H](CO)NC(=O)[C@H](Cc2c[nH]cn2)NC(=O)[C@H](Cc2ccc(O)cc2)NC(=O)[C@H](C)NC(=O)[C@H](CCC(N)=O)NC(=O)[C@H](CCCNC(=N)N)NC(=O)[C@H](C)NC1=O` [compound 429] (H-CDATCQFRKAIDDCARQAYHSNSVFKACMKQKKKEWKAG-NH2; disulfide 1-5, 14-28), the IC50 is below 0.01 nM.

Compound `CC[C@H](C)[C@H](NC(=O)[C@H](C)NC(=O)[C@H](CCCCN)NC(=O)[C@H](CCCNC(=N)N)NC(=O)[C@H](Cc1ccccc1)NC(=O)[C@H](CCC(N)=O)NC(=O)[C@@H]1CSSC[C@H](N)C(=O)N[C@@H](CC(=O)O)C(=O)N[C@@H](C)C(=O)N[C@@H]([C@@H](C)O)C(=O)N1)C(=O)N[C@@H](CC(=O)O)C(=O)N[C@@H](CC(=O)O)C(=O)N[C@H]1CSSC[C@@H](C(=O)N[C@@H](CCSC)C(=O)N[C@@H](CCCCN)C(=O)N[C@@H](CCC(N)=O)C(=O)N[C@@H](CCCCN)C(=O)N[C@@H](CCCCN)C(=O)N[C@@H](CCCCN)C(=O)N[C@@H](CCC(=O)O)C(=O)N[C@@H](Cc2ccccc2)C(=O)N[C@@H](CCCCN)C(=O)N[C@@H](C)C(=O)NCC(=O)O)NC(=O)[C@H](C)NC(=O)[C@H](CCCCN)NC(=O)[C@H](Cc2ccccc2)NC(=O)[C@H](C(C)C)NC(=O)[C@H](CO)NC(=O)CNC(=O)[C@@H]2CCCN2C(=O)[C@H](C(C)C)NC(=O)[C@H](CC(N)=O)NC(=O)[C@H](CO)NC(=O)[C@H](Cc2c[nH]cn2)NC(=O)[C@H](Cc2c[nH]cn2)NC(=O)[C@H](C)NC(=O)[C@H](CCC(N)=O)NC(=O)[C@H](CCCCN)NC(=O)[C@H](CCC(N)=O)NC1=O` [SEQ ID NO 190] gave an IC50 of 0.01 to 1 nM.

`CC[C@H](C)[C@H](NC(=O)[C@H](C)NC(=O)[C@H](CCCCN)NC(=O)[C@H](CCCNC(=N)N)NC(=O)[C@H](Cc1ccccc1)NC(=O)[C@H](CCC(N)=O)NC(=O)[C@@H]1CSSC[C@H](N)C(=O)N[C@@H](CC(=O)O)C(=O)N[C@@H](C)C(=O)N[C@@H]([C@@H](C)O)C(=O)N1)C(=O)N[C@@H](CC(=O)O)C(=O)N[C@@H](CC(=O)O)C(=O)N[C@H]1CSSC[C@@H](C(=O)N[C@@H](CCSC)C(=O)N[C@@H](CCCCN)C(=O)N[C@@H](CCC(N)=O)C(=O)N[C@@H](CCCCN)C(=O)N[C@@H](CCCCN)C(=O)N[C@@H](CCCCN)C(=O)N[C@@H](CCC(=O)O)C(=O)N[C@@H](Cc2c[nH]c3ccccc23)C(=O)N[C@@H](CCCCN)C(=O)N[C@@H](C)C(=O)NCC(N)=O)NC(=O)[C@H](C)NC(=O)[C@H](CCCCN)NC(=O)[C@H](Cc2ccccc2)NC(=O)[C@H](C(C)C)NC(=O)[C@H](CO)NC(=O)[C@H](C)NC(=O)[C@H](Cc2c[nH]cn2)NC(=O)[C@H](Cc2ccc(O)cc2)NC(=O)[C@H](C)NC(=O)[C@H](CCC(N)=O)NC(=O)[C@H](CCCNC(=N)N)NC(=O)[C@H](C)NC1=O` [compound 428] (H-CDATCQFRKAIDDCARQAYHASVFKACMKQKKKEWKAG-NH2; disulfide 1-5, 14-27) registered an IC50 below 0.01 nM.

Take “CDATCQFRKCIDDWQKQAHHSNVPGSVFKARMKQCKKEFKAG-NH2 (disulfide 1-5, 10-35) [compound 176]”: the IC50 lay within 1 to 100 nM.

Regarding `CC[C@H](C)[C@H](NC(=O)[C@H](C)NC(=O)[C@H](CCCCN)NC(=O)[C@H](CCCNC(=N)N)NC(=O)[C@H](Cc1ccccc1)NC(=O)[C@H](CCC(N)=O)NC(=O)[C@@H]1CSSC[C@H](N)C(=O)N[C@@H](CC(=O)O)C(=O)N[C@@H](C)C(=O)N[C@@H]([C@@H](C)O)C(=O)N1)C(=O)N[C@@H](CC(=O)O)C(=O)N[C@@H](CC(=O)O)C(=O)N[C@H]1CSSC[C@@H](C(=O)N[C@@H](CCSC)C(=O)N[C@@H](CCCCN)C(=O)N[C@@H](CCC(N)=O)C(=O)N[C@@H](CCCCN)C(=O)N[C@@H](CCCCN)C(=O)N[C@@H](CCCCN)C(=O)N[C@@H](CCC(=O)O)C(=O)N[C@@H](Cc2c[nH]c3ccccc23)C(=O)N[C@@H](CCCCN)C(=O)N[C@@H](C)C(=O)NCC(=O)N[C@@H](Cc2c[nH]cn2)C(=O)O)NC(=O)[C@H](C)NC(=O)[C@H](CCCCN)NC(=O)[C@H](Cc2ccccc2)NC(=O)[C@H](Cc2ccc(O)cc2)NC(=O)[C@H](C)NC(=O)[C@H](CCC(N)=O)NC(=O)[C@H](CCCNC(=N)N)NC(=O)[C@H](C)NC1=O` [compound 448] (H-CDATCQFRKAIDDCARQAYFKACMKQKKKEWKAGH-OH; disulfide 1-5, 14-23), the IC50 was below 0.01 nM.

`CC[C@H](C)[C@H](NC(=O)[C@H](C)NC(=O)[C@H](CCCCN)NC(=O)[C@H](CCCNC(=N)N)NC(=O)[C@H](Cc1ccccc1)NC(=O)[C@H](CCC(N)=O)NC(=O)[C@@H]1CSSC[C@H](N)C(=O)N[C@@H](CC(=O)O)C(=O)N[C@@H](C)C(=O)N[C@@H]([C@@H](C)O)C(=O)N1)C(=O)N[C@@H](CC(=O)O)C(=O)N[C@@H](CC(=O)O)C(=O)N[C@H]1CSSC[C@@H](C(=O)N[C@@H](CCSC)C(=O)N[C@@H](CCCCN)C(=O)N[C@@H](CCC(N)=O)C(=O)N[C@@H](CCCCN)C(=O)N[C@@H](CCCCN)C(=O)N[C@@H](CCCCN)C(=O)N[C@@H](CCC(=O)O)C(=O)N[C@@H](Cc2c[nH]c3ccccc23)C(=O)N[C@@H](CCCCN)C(=O)N[C@@H](C)C(=O)NCC(N)=O)NC(=O)[C@H](C)NC(=O)[C@H](CCCCN)NC(=O)[C@H](Cc2ccccc2)NC(=O)[C@H](C(C)C)NC(=O)[C@H](CO)NC(=O)[C@H](CO)NC(=O)[C@H](Cc2c[nH]cn2)NC(=O)[C@H](CO)NC(=O)[C@H](C)NC(=O)[C@H](CCC(N)=O)NC(=O)[C@H](CCCNC(=N)N)NC(=O)[C@H](C)NC1=O` [compound 433] (H-CDATCQFRKAIDDCARQASHSSVFKACMKQKKKEWKAG-NH2; disulfide 1-5, 14-27) displayed an IC50 below 0.01 nM.
